Source: patent US20040248904A1, “New piperidinylamino-thieno[2,3-d] pyrimidine compounds” (priority 2003, published 2004)
Where two headings read alike, the source gives them in different places.

Legend:
[1] = target: 5-HT2B (Homo sapiens, UniProt P41595); test: 5-HT2B receptor affinity (K1, Table 1); assay type: binding
Experimental: (§1) Compounds of the invention were made according to the respective syntheses noted above, and their activity and selectivity was determined. […] The compounds accordingly are expected to be useful as 5-HT2B receptor modulators, e.g., in the treatment of a wide variety of clinical conditions which are characterized by serotonin excess or absence, e.g., serotoninergic hypofunction or hyperfunction. Such conditions include those noted above, and conditions associated with vascular disorders, e.g., angina, migraine, pulmonary hypertension and systemic hypertension.

[2] = system: Rat Fundus; test: Functional (Antagonist Rat Fundus); assay type: cell-based
Experimental: as §1

[3] = Rat pharmacokinetics (% F, T1/2); conditions: in vivo; for bioavailability: oral, read-out: PK (% F) rat

Sequence of 5-HT2B (P41595 whole entry, species assumed): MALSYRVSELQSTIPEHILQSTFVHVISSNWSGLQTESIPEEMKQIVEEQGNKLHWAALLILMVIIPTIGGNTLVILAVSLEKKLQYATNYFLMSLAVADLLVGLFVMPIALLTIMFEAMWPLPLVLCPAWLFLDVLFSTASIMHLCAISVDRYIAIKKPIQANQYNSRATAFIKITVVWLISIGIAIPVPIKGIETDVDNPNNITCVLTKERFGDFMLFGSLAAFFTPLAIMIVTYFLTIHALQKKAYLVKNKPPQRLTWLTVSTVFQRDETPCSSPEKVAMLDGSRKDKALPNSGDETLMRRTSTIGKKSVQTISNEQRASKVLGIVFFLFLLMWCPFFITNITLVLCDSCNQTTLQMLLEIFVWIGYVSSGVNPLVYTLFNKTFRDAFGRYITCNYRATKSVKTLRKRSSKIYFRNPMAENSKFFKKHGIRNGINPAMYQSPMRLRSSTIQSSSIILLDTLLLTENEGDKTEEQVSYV

Ki [1] | SMILES | also measured
17 nM | Fc1cccc(CNCCCNc2ncnc3sc4c(c23)CCCC4)c1 [Compound 13] | 
70 nM | CC(C)Cc1cc2c(NC3CCN(C(C)c4c(F)cc(F)cc4F)CC3)ncnc2s1 (stereo not drawn) [Compound 18] | 
2.64 nM | CC(c1cc(F)cc(F)c1)N1CCC(Nc2ncnc3sc4c(c23)CCCC4)CC1 (stereo not drawn) [Compound 5] | IC50 [2]: 1300 nM
4 nM | CC(c1cccc(F)c1)N1CCC(Nc2ncnc3sc4c(c23)CCCC4)CC1 (stereo not drawn) [Compound 6] | 
120 nM | CC(C#N)(c1cccc(F)c1)N1CCC(Nc2ncnc3sc4c(c23)CCCC4)CC1 (stereo not drawn) [Compound 21] | 
13 nM | c1ccc(CN2CCC(Nc3ncnc4sc5c(c34)CCCC5)CC2)cc1 [Compound 10] | bioavailability [3]: 1.5%; IC50 [2]: 110 nM
84 nM | CC(C)CC(c1cccc(F)c1)N1CCC(Nc2ncnc3sc4c(c23)CCCC4)CC1 (stereo not drawn) [Compound 20] | 
2.3 nM | Fc1cccc(CN2CCC(Nc3ncnc4sc5c(c34)CCCC5)CC2)c1 [Compound 4] | IC50 [2]: 100 nM
15 nM | CC(C)(c1cccc(F)c1)N1CCC(Nc2ncnc3sc4c(c23)CCCC4)CC1 [Compound 12] | 
4.6 nM | Cc1sc2ncnc(NC3CCN(C(C)c4cccc(F)c4)CC3)c2c1C (stereo not drawn) [Compound 8] | 
210 nM | Cc1sc2ncnc(NC3CCN(Cc4ccccc4C#N)CC3)c2c1C [Compound 23] | 
0.97 nM | CC(C)Cc1cc2c(NC3CCN(C(C)c4cccc(F)c4)CC3)ncnc2s1 (stereo not drawn) [Compound 3] | bioavailability [3]: 3.9%; half-life ([3]; po, read-out: T1/2 (hr) rat* po (converted)): 0.45 h; IC50 [2]: 5300 nM
52 nM | CC(NCCCNc1ncnc2sc3c(c12)CCCC3)c1cccc(F)c1 (stereo not drawn) [Compound 17] | 
150 nM | CC(C)Cc1cc2c(NCCCNC(C)c3cccc(F)c3)ncnc2s1 (stereo not drawn) [Compound 22] | 
7.8 nM | Cc1sc2ncnc(NC3CCN(CC4CCCCC4)CC3)c2c1C [Compound 9] | 
44 nM | CC(c1c(F)cccc1F)N1CCC(Nc2ncnc3sc4c(c23)CCCC4)CC1 (stereo not drawn) [Compound 16] | 
0.79 nM | Fc1cccc(CN2CCC(Nc3ncnc4sc(Cl)cc34)CC2)c1 [Compound 2] | 
18 nM | Fc1cc(F)cc(CN2CCC(Nc3ncnc4sccc34)CC2)c1 [Compound 14] | half-life ([3]; iv, read-out: T1/2 (hr) rat iv (converted)): 0.3 h; IC50 [2]: 1600 nM
1200 nM | CC(c1cccc(F)c1)N1CCC(C)(Nc2ncnc3sc4c(c23)CCCC4)CC1 (stereo not drawn) [Compound 25] | 
72 nM | CC(c1c(F)cc(F)cc1F)N1CCC(Nc2ncnc3sc4c(c23)CCCC4)CC1 (stereo not drawn) [Compound 19] | 
1300 nM | CC(C)Cc1cc2c(N3CCC(NCc4cc(F)cc(F)c4)CC3)ncnc2s1 [Compound 26] | 
4.2 nM | CC(C)Cc1cc2c(NC3CCN(C(C)c4cc(F)cc(F)c4)CC3)ncnc2s1 (stereo not drawn) [Compound 7] | bioavailability [3]: 2.8%; IC50 [2]: 5700 nM
20 nM | CC(C)Cc1cc2c(NC3CCN(C(C)c4c(F)cccc4F)CC3)ncnc2s1 (stereo not drawn) [Compound 15] | 
14 nM | CC(c1cccc(F)c1)N1CCC(Nc2ncnc3sccc23)CC1 (stereo not drawn) [Compound 11] | 
950 nM | Fc1cccc(C(N2CCC(Nc3ncnc4sc5c(c34)CCCC5)CC2)C(F)(F)F)c1 (stereo not drawn) [Compound 24] | 

SMILES | Ki [1] | also measured
CC(C)c1cc2c(NC3CCN(Cc4cc(F)cc(F)c4)CC3)ncnc2s1 [Compound 1] | 0.57 nM | bioavailability [3]: 9.8%; IC50 [2]: 830 nM
